Reference: ChEMBL document CHEMBL1122681, “(Acylaryloxy)acetic acid diuretics. 5. [(2-Alkyl- and 2,2-disubstituted-1,3-dioxo-5-indanyl)oxy]acetic acids” (J Med Chem, 1984)

How the values were obtained:
[1] = volume of urine at 3 mg/kg; assay type: ADME, organism-based; design: dose 3 mg/kg; conditions: in vivo
[2] = volume of urine at 81 mg/kg; assay type: ADME, organism-based; design: dose 81 mg/kg; conditions: in vivo
[3] = volume of urine at 9 mg/kg; assay type: ADME, organism-based; design: dose 9 mg/kg; conditions: in vivo
Canis familiaris [4] = species on record: Canis familiaris; test: volume of urine in dog; assay type: ADME, organism-based, Canis lupus familiaris; conditions: in vivo
Canis familiaris [5] = test: Compound was evaluated for diuretic activity, in female mongrel dogs by measuring volume of urine, after iv administration of 5 mg/kg (control/compound treatment results) Control = 2; assay type: ADME, organism-based, Canis lupus familiaris; design: dose 5 mg/kg, route intravenous; conditions: dog, in vivo
Pan troglodytes [6] = test: Compound was evaluated for diuretic activity in chimpanzee measured as increase in volume of urine at 1 mg/kg; assay type: functional
Pan troglodytes [7] = test: Compound was evaluated for diuretic activity in chimpanzee measured as increase in volume of urine at 5 mg/kg; assay type: functional
Pan troglodytes [8] = test: Compound was evaluated for diuretic activity in chimpanzee measured as clearance of […] and urate after intra venous administration of 5 mg/kg.; assay type: functional, Urine
Pan troglodytes [9] = test: Compound was evaluated for diuretic activity in chimpanzee measured as clearance of […] and urate after peroral administration of 5 mg/kg; assay type: functional, Urine; conditions: route oral
Pan troglodytes [10] = test: Compound was evaluated for diuretic activity in chimpanzee measured as increase in the number of microequivalents of Na+ /min at 1 mg/kg; assay type: functional, Urine
Pan troglodytes [11] = test: Compound was evaluated for diuretic activity in chimpanzee measured as increase in the number of microequivalents of Na+ /min at 5 mg/kg; assay type: functional, Urine
Pan troglodytes [12] = test: Compound was evaluated for diuretic activity in chimpanzee measured as increase in the number of microequivalents of Cl- electrolyte/min at 1 mg/kg; assay type: functional, Urine
Pan troglodytes [13] = test: Compound was evaluated for diuretic activity in chimpanzee measured as increase in the number of microequivalents of Cl- electrolyte/min at 5 mg/kg; assay type: functional, Urine
Pan troglodytes [14] = test: Compound was evaluated for diuretic activity in chimpanzee measured as increase in the number of microequivalents of K+ /min at 1 mg/kg; assay type: functional, Urine
Canis familiaris [15] = test: Compound was evaluated for diuretic activity, in female mongrel dogs by measuring amount of K+ in urine after iv administration of 5 mg/kg (control/compound treatment results) Control = 11; assay type: functional, Canis lupus familiaris
Canis familiaris [16] = test: Compound was evaluated for diuretic activity, in female mongrel dogs by measuring amount of Cl- in urine after iv administration of 5 mg/kg (control/compound treatment results) Control = 62; assay type: functional, Canis lupus familiaris
Pan troglodytes [17] = test: Compound was evaluated for diuretic activity in chimpanzee measured as increase in the number of microequivalents of K+ /min at 5 mg/kg; assay type: functional, Urine
Canis familiaris [18] = test: Compound was evaluated for diuretic activity, in female mongrel dogs by measuring amount of Na+ in urine after iv administration of 5 mg/kg (control/compound treatment results) Control = 107; assay type: functional, Canis lupus familiaris
Canis familiaris [19] = test: Compound was evaluated for diuretic activity, administered orally in female mongrel dogs (5 mg/kg) measured as milliequivalents of Cl-; assay type: functional, Canis lupus familiaris, Urine
Canis familiaris [20] = test: Compound was evaluated for diuretic activity, administered orally in female mongrel dogs (5 mg/kg) measured as milliequivalents of K; assay type: functional, Canis lupus familiaris, Urine
Canis familiaris [21] = test: Compound was evaluated for diuretic activity, administered orally in female mongrel dogs (5 mg/kg) measured as milliequivalents of Na; assay type: functional, Canis lupus familiaris, Urine
Rattus norvegicus [22] = test: Compound was evaluated for diuretic activity administered orally in female rats measured as milliequivalents of Na+x 100 / cage at 81 mg/kg; assay type: functional, Urine; conditions: route oral
Rattus norvegicus [23] = test: Compound was evaluated for diuretic activity administered orally in female rats measured as milliequivalents of Na+x 100 / cage at 9 mg/kg; assay type: functional, Urine; conditions: route oral
Rattus norvegicus [24] = test: Compound was evaluated for diuretic activity administered orally in female rats measured as milliequivalents of Cl-+x 100 / cage at 27 mg/kg; assay type: functional, Urine; conditions: route oral
Rattus norvegicus [25] = test: Compound was evaluated for diuretic activity administered orally in female rats measured as milliequivalents of Cl-x 100 / cage at 3 mg/kg; assay type: functional, Urine; conditions: route oral
Rattus norvegicus [26] = test: Compound was evaluated for diuretic activity administered orally in female rats measured as milliequivalents of Cl-x 100 / cage at 81 mg/kg; assay type: functional, Urine; conditions: route oral
Rattus norvegicus [27] = test: Compound was evaluated for diuretic activity administered orally in female rats measured as milliequivalents of Cl-x 100 / cage at 9 mg/kg; assay type: functional, Urine; conditions: route oral
Rattus norvegicus [28] = test: Compound was evaluated for diuretic activity administered orally in female rats measured as milliequivalents of K+x 100 / cage at 27 mg/kg; assay type: functional, Urine; conditions: route oral
Rattus norvegicus [29] = test: Compound was evaluated for diuretic activity administered orally in female rats measured as milliequivalents of K+x 100 / cage at 3 mg/kg; assay type: functional, Urine; conditions: route oral
Rattus norvegicus [30] = test: Compound was evaluated for diuretic activity administered orally in female rats measured as milliequivalents of K+x 100 / cage at 81 mg/kg; assay type: functional, Urine; conditions: route oral
Rattus norvegicus [31] = test: Compound was evaluated for diuretic activity administered orally in female rats measured as milliequivalents of K+x 100 / cage at 9 mg/kg; assay type: functional, Urine; conditions: route oral
Rattus norvegicus [32] = test: Compound was evaluated for diuretic activity administered orally in female rats measured as milliequivalents of Na+x 100 / cage at 27 mg/kg; assay type: functional, Urine; conditions: route oral
Rattus norvegicus [33] = test: Compound was evaluated for diuretic activity administered orally in female rats measured as milliequivalents of Na+x 100 / cage at 3 mg/kg; assay type: functional, Urine; conditions: route oral
[34] = volume of urine at 27 mg/kg; assay type: ADME, organism-based; design: dose 27 mg/kg; conditions: in vivo

With `CC1(c2ccccc2)Cc2cc(OCC(=O)O)c(Cl)c(Cl)c2C1=O` (centres undefined) [INDACRINONE] the Urine volume [1] was 28 mL, the Urine volume [2] was 35 mL and the Urine volume [3] was 29 mL. For the same compound, the Urine volume (Canis familiaris [4]) was 267 mL, the Urine volume (Canis familiaris [5]) was 8 mL/min and the Increase in volume (Pan troglodytes [6]) was 14.8 mL/min. For the same compound, the Increase in volume (Pan troglodytes [7]) was 3.6 mL/min, the “Delta C urate / delta C insulin” value (Pan troglodytes [8]) was 0.55 and the “Delta C urate / delta C insulin” value (Pan troglodytes [9]) was 0.332. The Increase (Pan troglodytes [10]) was 2383, the Increase (Pan troglodytes [11]) was 409 and the Increase (Pan troglodytes [12]) was 2624. It also gave an Increase (Pan troglodytes [13]) of 554, an Increase (Pan troglodytes [14]) of 171 and an Activity (Canis familiaris [15]) of 62 u equiv min-1. For the same compound, the Activity (Canis familiaris [16]) was 1010 u equiv min-1, the Increase (Pan troglodytes [17]) was 53 and the Activity (Canis familiaris [18]) was 920 u equiv min-1. For the same compound, the Activity (Canis familiaris [19]) was 26, the Activity (Canis familiaris [20]) was 2.2 and the Activity (Canis familiaris [21]) was 12. The Activity (Rattus norvegicus [22]) was 189, the Activity (Rattus norvegicus [23]) was 97 and the Activity (Rattus norvegicus [24]) was 223. The Activity (Rattus norvegicus [25]) was 85, the Activity (Rattus norvegicus [26]) was 303 and the Activity (Rattus norvegicus [27]) was 163. For the same compound, the Activity (Rattus norvegicus [28]) was 61, the Activity (Rattus norvegicus [29]) was 32 and the Activity (Rattus norvegicus [30]) was 85. For the same compound, the PActivity (Rattus norvegicus [31]) was 50, the Activity (Rattus norvegicus [32]) was 129 and the Activity (Rattus norvegicus [33]) was 86. It also gave a Urine volume [34] of 31 mL.
